This is an account of results in ChEMBL document CHEMBL3244027, “Syntheses, analgetic activity, and physical dependence capacity of 5-phenyl-6,7-benzomorphan derivatives” (J Med Chem, 1979).

Assay [1] has as its system Mus musculus. As to the kind of experiment: Analgetic activity against CF-1 mouse assessed as increase in reaction time at 40 mg/kg, po by heat stimulus induced tail flick response assay. The class given is functional, organism-based. Further details: dose 40 mg/kg.
The subject of assay [2] is Mus musculus. As to the kind of experiment: Analgetic activity against CF-1 mouse assessed as increase in reaction time at 20 mg/kg, sc by heat stimulus induced tail flick response assay. It counts as functional, organism-based. On the set-up: dose 20 mg/kg.
Assay [3] concerns Rhesus monkey. The assay is described as follows: Analgetic activity in naloxone challenged monkey assessed as frequency pretreated for 2 day by mouse jumping test. To be noted: Macaca mulatta. It counts as functional, organism-based.
In assay [4] the test system is Mus musculus. The assay is described as follows: Analgetic activity against CF-1 mouse assessed as increase in reaction time at 2.5 mg/kg, sc by heat stimulus induced tail flick response assay. It counts as functional, organism-based. Further details: dose 2.5 mg/kg.
For assay [5], the system named is Mus musculus. As to the kind of experiment: Analgetic activity against CF-1 mouse assessed as increase in reaction time at 20 mg/kg, po by heat stimulus induced tail flick response assay. It counts as functional, organism-based. Further details: dose 20 mg/kg.
Assay [6] has as its system Mus musculus. As to the kind of experiment: Analgetic activity in sc dosed CF1S mouse assessed as writhing by phenylquinone writhing test. The class given is functional. Conditions: Mus musculus, CF1S, sc; read-out: ED50. In general terms: In writhing tests, fewer writhes than in controls are read as antinociception.
The subject of assay [7] is Mus musculus. The assay is described as follows: Analgetic activity against CF-1 mouse assessed as increase in reaction time at 50 mg/kg, sc by heat stimulus induced tail flick response assay. The class given is functional, organism-based. Further details: dose 50 mg/kg.
Assay [8] is filed under the species Mus musculus. As to the kind of experiment: Analgetic activity in naloxone challenged mouse assessed as frequency pretreated for 2 day by mouse jumping test. The class given is functional, organism-based.
The species entered for assay [9] is Mus musculus. As to the kind of experiment: Analgetic activity in nalorphine challenged mouse assessed as frequency pretreated for 2 day by mouse jumping test. It counts as functional, organism-based.
Assay [10] relates to Mus musculus. As to the kind of experiment: Analgetic activity in po dosed CF1S mouse assessed as writhing by phenylquinone writhing test. The class given is functional. To be noted: Mus musculus, CF1S, po; read-out: ED50.
Assay [11] deals with Mus musculus. As to the kind of experiment: Analgetic activity against CF-1 mouse assessed as increase in reaction time at 160 mg/kg, sc by heat stimulus induced tail flick response assay. It counts as functional, organism-based. Further details: dose 160 mg/kg.
In assay [12] the test system is Mus musculus. As to the kind of experiment: Analgetic activity against CF-1 mouse assessed as increase in reaction time at 10 mg/kg, sc by heat stimulus induced tail flick response assay. On the set-up: dose 10 mg/kg. It counts as functional, organism-based.
Assay [13] has as its system Mus musculus. As to the kind of experiment: Analgetic activity against CF-1 mouse assessed as increase in reaction time at 100 mg/kg, sc by heat stimulus induced tail flick response assay. It counts as functional, organism-based. Further details: dose 100 mg/kg.
The test system of assay [14] is Mus musculus. The assay is described as follows: Analgetic activity against CF-1 mouse assessed as increase in reaction time at 10 mg/kg, po by heat stimulus induced tail flick response assay. On the set-up: dose 10 mg/kg. It counts as functional, organism-based.
For assay [15], the system named is Mus musculus. As to the kind of experiment: Analgetic activity against CF-1 mouse assessed as increase in reaction time at 80 mg/kg, po by heat stimulus induced tail flick response assay. On the set-up: dose 80 mg/kg. It counts as functional, organism-based.
The subject of assay [16] is Mus musculus. As to the kind of experiment: Analgetic activity against CF-1 mouse assessed as increase in reaction time at 1.2 mg/kg, sc by heat stimulus induced tail flick response assay. The class given is functional, organism-based. Further details: dose 1.2 mg/kg.
Assay [17] concerns Mus musculus. As to the kind of experiment: Analgetic activity against CF-1 mouse assessed as increase in reaction time at 40 mg/kg, sc by heat stimulus induced tail flick response assay. It counts as functional, organism-based. On the set-up: dose 40 mg/kg.
For assay [18], the system named is Mus musculus. The assay is described as follows: Analgetic activity against CF-1 mouse assessed as increase in reaction time at 60 mg/kg, sc by heat stimulus induced tail flick response assay. The class given is functional, organism-based. On the set-up: dose 60 mg/kg.
In assay [19] the test system is Mus musculus. The assay is described as follows: Analgetic activity against CF-1 mouse assessed as increase in reaction time at 4 mg/kg, sc by heat stimulus induced tail flick response assay. The class given is functional, organism-based. Further details: dose 4 mg/kg.
Assay [20] concerns Mus musculus. The assay is described as follows: Analgetic activity against CF-1 mouse assessed as increase in reaction time at 16 mg/kg, po by heat stimulus induced tail flick response assay. The class given is functional, organism-based. Further details: dose 16 mg/kg.
The test system of assay [21] is Mus musculus. As to the kind of experiment: Analgetic activity against CF-1 mouse assessed as increase in reaction time at 30 mg/kg, po by heat stimulus induced tail flick response assay. It counts as functional, organism-based. Further details: dose 30 mg/kg.
Assay [22] concerns Mus musculus. The assay is described as follows: Analgetic activity against CF-1 mouse assessed as increase in reaction time at 2 mg/kg, sc by heat stimulus induced tail flick response assay. The class given is functional, organism-based. On the set-up: dose 2 mg/kg.

As usually defined, the ED50 is the dose that gives a 50% effect, or the effect in half of the subjects.

Each structure is given as a SMILES string. Active and inactive are the calls of the source. No cut-off for these calls is given here.

With `CC1C2Cc3ccc(O)cc3C1(c1ccccc1)CCN2C` (configuration not stated), the result in assay [1] and in assay [2] was Active.
Consider `Oc1ccc2c(c1)C1(c3ccccc3)CCN(CC3CCC3)C(C2)C1` (racemic), for which the outcome in [3] was inactive.
For `CC1C2Cc3ccc(OC(=O)C4CCC4)cc3C1(c1ccccc1)CCN2C` (configuration not stated), the outcome in [4] and in assay [5] was Active.
As to `CC1C2Cc3ccc(O)cc3C1(c1ccccc1)CCN2CCCC(=O)c1ccc(F)cc1.Cl.O` (configuration not stated), the ED50 in [6] was above 100 mg/kg. Moreover, the outcome in assay [7] and in assay [8] was inactive.
Regarding `CC1C2Cc3ccc(OC(=O)c4ccccc4Cl)cc3C1(c1ccccc1)CCN2C` (configuration not stated), the result in assay [9] was Active. The ED50 in [10] was found to be 49 mg/kg.
With `CCCCCN1CCC2(c3ccccc3)c3cc(O)ccc3CC1C2C` (configuration not stated), the result in [4] and in assay [11] was Active.
In the case of `CC1C2Cc3ccc(O)cc3C1(c1ccc(Cl)cc1)CCN2C` (racemic), the outcome in [12] and in assay [5] was Active.
`CC(O)C(=O)O.CC1C2Cc3ccc(O)cc3C1(c1ccccc1)CCN2CCCCc1ccccc1` (configuration not stated): in assay [13], the outcome was inactive. Also, the ED50 in [10] is above 100 mg/kg.
As for `CC1C2Cc3ccc(O)cc3C1(c1ccc(F)cc1)CCN2C` (racemic), the result in assay [4] and in assay [14] was Active.
As for `CC1C2Cc3ccc(O)cc3C1(c1ccccc1)CCN2CCc1ccccc1` (configuration not stated), the outcome in assay [12] and in assay [15] was Active.
For `CC1C2Cc3ccc(OC(=O)c4ccc(Cl)cc4)cc3C1(c1ccccc1)CCN2C` (configuration not stated), the result in assay [16] was Active.
For the molecule `CCOC(=O)CNC(=O)Oc1ccc2c(c1)C1(c3ccccc3)CCN(C)C(C2)[C@H]1C` (some centres not stated), the outcome in assay [17] and in [15] was Active.
With `Cl.Oc1ccc2c(c1)C1(c3ccc(Cl)cc3)CCN(CCc3ccccc3)C(C2)C1` (racemic), the ED50 in [6] is above 100 mg/kg. The outcome in assay [15] was inactive.
As to `Oc1ccc2c(c1)C1(c3ccccc3)CCN(CC3CC3)C(C2)C1` (racemic), the outcome in [3] was inactive.
Regarding `CN1CCC2(c3ccccc3)CC1Cc1ccc(O)cc12` (stereo in doubt; 43), in assay [18], the outcome was inactive.
`CN1CC[C@]23c4c5ccc(O)c4O[C@H]2[C@@H](O)C=C[C@H]3[C@H]1C5` [MORPHINE]: the result in assay [19], in [20] and in [8] was Active. Further, the ED50 in [10] stood at 8.9 mg/kg.
As to `COc1ccc2c(c1)C1(c3ccccc3)CCN(C)C(C2)C1` (racemic), the outcome in [13] was inactive.
On to `CC(=O)Oc1ccc2c(c1)C1(c3ccccc3)CCN(C(C)=O)C(C2)C1` (racemic), for which the outcome in assay [21] was inactive. Further, in assay [6], the ED50 is above 100 mg/kg.
With `CC1C2Cc3ccccc3C1(c1ccccc1)CCN2C` (racemic), the outcome in assay [17] and in assay [15] was Active.
For the molecule `CC(=O)Oc1ccc2c(c1)C1(c3ccc(Cl)cc3)CCN(C)C(C2)C1` (racemic), in assay [6], the ED50 amounted to 20 mg/kg. The result in assay [13] was Active.
With `CC1C2Cc3ccc(OC(=O)CCl)cc3C1(c1ccccc1)CCN2C` (configuration not stated), the result in [4] was Active.
Consider `CN1CCC2(c3ccccc3)CC1Cc1ccccc12` (racemic), for which the result in assay [1] and in assay [2] was Active.
In the case of `C[C@@H]1C2Cc3ccc(O)cc3C1(c1ccccc1)CCN2C` (some centres not stated), the outcome in assay [22] and in assay [3] was Active.
For `COc1ccc(CC2C=C(c3ccc(Cl)cc3)CCN2C)cc1` (configuration not stated), the result in [1] was Active. The result in [8] was inactive.
`CCCC(=O)Oc1ccc2c(c1)C1(c3ccccc3)CCN(C)C(C2)C1C` (configuration not stated): the outcome in assay [5] and in [14] was Active.
